For 23 compounds, Ki results are on record in patent US7829589B2, “Sulfonamide compounds and uses thereof” (Elixir Pharmaceuticals, Inc., priority 2005, dated 2010).

Structures are written as SMILES.

Sequence of GHS-R (Q92847 whole entry, species assumed): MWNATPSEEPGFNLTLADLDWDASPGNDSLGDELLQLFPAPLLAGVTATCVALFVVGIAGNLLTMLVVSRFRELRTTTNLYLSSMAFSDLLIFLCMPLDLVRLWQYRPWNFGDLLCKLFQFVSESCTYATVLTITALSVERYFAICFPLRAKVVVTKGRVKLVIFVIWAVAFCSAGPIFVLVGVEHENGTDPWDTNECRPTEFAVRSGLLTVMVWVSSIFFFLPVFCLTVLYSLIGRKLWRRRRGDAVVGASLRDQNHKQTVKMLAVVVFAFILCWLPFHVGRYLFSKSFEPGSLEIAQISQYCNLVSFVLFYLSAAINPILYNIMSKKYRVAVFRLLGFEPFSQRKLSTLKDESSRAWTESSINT

This assay addresses GHS-R (Homo sapiens, UniProt Q92847). Briefly: GHS-R antagonist activity (Ki) in a cell based assay. The protocol: Cell-Based Activity Assays. For example, the ability of the compound to modulate accumulation of a second messenger signaling component downstream of GHS-R can be evaluated. For example, inositol phosphates (IP), as a result of Gq signaling in a mammalian cell, e.g., a Cos-7 cells. Other tissue culture cells, Xenopus oocytes, and primary cells can also be used.
Phosphatidylinositol turnover assay. One day after transfection COS-7 cells are incubated for 24 hours with 5 μCi of [^3H]-myo-inositol in 1 ml medium supplemented with 10% fetal calf serum, 2 mM glutamine and 0.01 mg/ml gentamicin per well. Cells are then washed twice in buffer, 20 mM HEPES, pH 7.4, supplemented with 140 mM NaCl, 5 mM KCl, 1 mM MgSO4, 1 mM CaCl2, 10 mM glucose, 0.05% (w/v) bovine serum; and incubated in 0.5 ml buffer supplemented with 10 mM LiCl at 37° C. for 30 min. For some assays, it is also useful to incubate the cells with adenosine deaminase ADA (200 U/mg, Boehringer Mannheim, Germany) for 30 min in a concentration of 1 U/ml.
After incubation with the compound of interest for 45 min at 37° C., cells are extracted with 10% ice-cold perchloric acid and placed on ice for 30 min. The resulting supernatants are neutralized with KOH in HEPES buffer, and [^3H]-inositol phosphate is purified on Bio-Rad AG 1-X8 anion exchange resin as described. Assays can be run in duplicate, triplicate, etc. […]
For `CCN(CC)CCCS(=O)(=O)N[C@H](CCc1ccccc1)c1nc(Cc2ccc3c(c2)OCO3)n[nH]1` [Compound 30, 3-Diethylamino-propane-1-sulfonic acid [(R)-1-(5-benzo[1,3]dioxol-5-ylmethyl-2H-[1,2,4]triazol-3-yl)-3-phenyl-propyl]-amide], the Ki is below 100 nM.

Take `CCN(CC)CCCS(=O)(=O)N[C@H](CCc1ccccc1)c1nc(-c2cccnc2Cl)no1` [Compound 31, 3-Diethylamino-propane-1-sulfonic acid {(R)-1-[3-(2-chloro-pyridin-3-yl)-[1,2,4]oxadiazol-5-yl]-3-phenyl-propyl}-amide]: the Ki was below 100 nM. In the case of `CCN(CC)CCCS(=O)(=O)N[C@H](CCc1ccccc1)c1nc(Cc2ccc(OC)c(OC)c2)n[nH]1` [Compound 32, 3-Diethylamino-propane-1-sulfonic acid {(R)-1-[5-(3,4-dimethoxy-benzyl)-2H-[1,2,4]triazol-3-yl]-3-phenyl-propyl}-amide], the Ki was below 100 nM. `CCN(CC)CCCS(=O)(=O)N[C@H](COCc1ccccc1)c1nc(-c2ccccc2C)no1` [Compound 33, 3-Diethylamino-propane-1-sulfonic acid [(R)-2-benzyloxy-1-(3-o-tolyl-[1,2,4]oxadiazol-5-yl)-ethyl]-amide] showed a Ki of at least 1000 nM. The figure for `CCN(CC)CCCS(=O)(=O)N[C@H](COCc1ccccc1)c1nc(-c2ncccc2C)no1` [Compound 34, 3-Diethylamino-propane-1-sulfonic acid {(R)-2-benzyloxy-1-[3-(3-methyl-pyridin-2-yl)-[1,2,4]oxadiazol-5-yl]-ethyl}-amide] is 500 to 1000 nM; for `CCN(CC)C1CCC(S(=O)(=O)N[C@H](CCc2ccccc2)c2nnc(-c3ccc(F)cc3)[nH]2)CC1` (stereo partly drawn) [Compound 35, 4-Diethylamino-cyclohexanesulfonic acid {(R)-1-[5-(4-fluoro-phenyl)-4H-[1,2,4]triazol-3-yl]-3-phenyl-propyl}-amide] it is 100 to 500 nM. Consider `CCN(CC)CCS(=O)(=O)N[C@H](CCc1ccccc1)c1nc(-c2c(C)cccc2C)no1` [Compound 36, 2-Diethylamino-ethanesulfonic acid {(R)-1-[3-(2,6-dimethyl-phenyl)-[1,2,4]oxadiazol-5-yl]-3-phenyl-propyl}-amide], for which the inhibition constant Ki is at least 1000 nM. Compound `CCN(CC)CCCS(=O)(=O)N[C@H](CCc1ccccc1)c1nc(-c2c(OC)cccc2OC)no1` [Compound 37, 3-Diethylamino-propane-1-sulfonic acid {(R)-1-[3-(2,6-dimethoxy-phenyl)-[1,2,4]oxadiazol-5-yl]-3-phenyl-propyl}-amide] gave a Ki of 500 to 1000 nM. `CCN(CC)CCCS(=O)(=O)N[C@H](CCc1ccccc1)c1nc(-c2c[nH]c3ccccc23)n[nH]1` [Compound 38, 3-Diethylamino-propane-1-sulfonic acid {(R)-1-[5-(1H-indol-3-yl)-2H-[1,2,4]triazol-3-yl]-3-phenyl-propyl}-amide] yielded a Ki below 100 nM. For the compound `CCN(CC)CCCS(=O)(=O)N[C@H](CCc1ccccc1)c1nc(-c2ccccn2)no1` [Compound 39, 3-Diethylamino-propane-1-sulfonic acid [(R)-3-phenyl-1-(3-pyridin-2-yl-[1,2,4]oxadiazol-5-yl)-propyl]-amide], the Ki was 500 to 1000 nM. In turn, `CCN(CC)CCCS(=O)(=O)N[C@H](CCc1ccccc1)c1nc(-c2ccc(C#N)cc2)n[nH]1` [Compound 40, 3-Diethylamino-propane-1-sulfonic acid {(R)-1-[5-(4-cyano-phenyl)-2H-[1,2,4]triazol-3-yl]-3-phenyl-propyl}-amide] registered a Ki below 100 nM. The same measure for `CCN(CC)CCCS(=O)(=O)N[C@H](CCc1ccccc1)c1nc(-c2cccnc2)no1` [Compound 41, 3-Diethylamino-propane-1-sulfonic acid [(R)-3-phenyl-1-(3-pyridin-3-yl-[1,2,4]oxadiazol-5-yl)-propyl]-amide]: 100 to 500 nM; for `CCN(CC)CCCS(=O)(=O)N[C@H](CCc1ccccc1)c1nc(-c2ccc(C(C)(C)C)cc2)n[nH]1` [Compound 42, 3-Diethylamino-propane-1-sulfonic acid {(R)-1-[5-(4-tert-butyl-phenyl)-2H-[1,2,4]triazol-3-yl]-3-phenyl-propyl}-amide]: at least 1000 nM; for `CCN(CC)CCS(=O)(=O)N[C@H](CCc1ccccc1)c1nc(-c2cccnc2)no1` [Compound 43, 2-Diethylamino-ethanesulfonic acid [(R)-3-phenyl-1-(3-pyridin-3-yl-[1,2,4]oxadiazol-5-yl)-propyl]-amide]: 100 to 500 nM. As for `CCN(CC)CCCS(=O)(=O)N[C@H](CCc1ccccc1)c1nc(-c2ccc3ncsc3c2)n[nH]1` [Compound 44, 3-Diethylamino-propane-1-sulfonic acid [(R)-1-(5-benzothiazol-6-yl-2H-[1,2,4]triazol-3-yl)-3-phenyl-propyl]-amide], the Ki was below 100 nM.

As for `CCN(CC)CCCS(=O)(=O)N[C@H](COCc1ccccc1)c1nc(-c2cccnc2)no1` [Compound 45, 3-Diethylamino-propane-1-sulfonic acid [(R)-2-benzyloxy-1-(3-pyridin-3-yl-[1,2,4]oxadiazol-5-yl)-ethyl]-amide], the Ki was at least 1000 nM. `CCN(CC)CCS(=O)(=O)N[C@H](CCc1ccccc1)c1nc(-c2c(OC)cccc2OC)no1` [Compound 46, 2-Diethylamino-ethanesulfonic acid {(R)-1-[3-(2,6-dimethoxy-phenyl)-[1,2,4]oxadiazol-5-yl]-3-phenyl-propyl}-amide]: the Ki was 100 to 500 nM. In turn, `CCN(CC)CCCS(=O)(=O)N[C@H](CCc1ccccc1)c1nc(-c2ccc3c(c2)OCCO3)n[nH]1` [Compound 47, 3-Diethylamino-propane-1-sulfonic acid {(R)-1-[5-(2,3-dihydro-benzo[1,4]dioxin-6-yl)-2H-[1,2,4]triazol-3-yl]-3-phenyl-propyl}-amide] had a Ki below 100 nM.

For `CCN(CC)CCCS(=O)(=O)N[C@H](CCc1ccccc1)c1nc(-c2ccccc2Cl)no1` [Compound 48, 3-Diethylamino-propane-1-sulfonic acid {(R)-1-[3-(2-chloro-phenyl)-[1,2,4]oxadiazol-5-yl]-3-phenyl-propyl}-amide], the Ki is 100 to 500 nM. Regarding `CCN(CC)CCS(=O)(=O)N[C@H](COCc1ccccc1)c1nc(-c2ccccc2OC)no1` [Compound 49, 2-Diethylamino-ethanesulfonic acid {(R)-2-benzyloxy-1-[3-(2-methoxy-phenyl)-[1,2,4]oxadiazol-5-yl]-ethyl}-amide], the Ki is at least 1000 nM. The same measure for `CCN(CC)CCCS(=O)(=O)N[C@H](CCc1ccccc1)c1nc(-c2cccc(C#N)c2)n[nH]1` [Compound 50, 3-Diethylamino-propane-1-sulfonic acid {(R)-1-[5-(3-cyano-phenyl)-2H-[1,2,4]triazol-3-yl]-3-phenyl-propyl}-amide]: below 100 nM; for `CCN(CC)CCCS(=O)(=O)N[C@H](COCc1ccccc1)c1nc(-c2ccncc2)no1` [Compound 51, 3-Diethylamino-propane-1-sulfonic acid [(R)-2-benzyloxy-1-(3-pyridin-4-yl-[1,2,4]oxadiazol-5-yl)-ethyl]-amide]: at least 1000 nM. The figure for `CCN(CC)CCCS(=O)(=O)N[C@H](CCc1ccccc1)c1nc(-c2c(C)cccc2C)no1` [Compound 52, 3-Diethylamino-propane-1-sulfonic acid {(R)-1-[3-(2,6-dimethyl-phenyl)-[1,2,4]oxadiazol-5-yl]-3-phenyl-propyl}-amide] is 100 to 500 nM.
